{"source": "patent US20210276987A1", "about": "“PHARMACEUTICAL AGENTS FOR USE IN SMOKING AND TOBACCO CESSATION” (Washington State University, priority 2018, published 2021)", "key": {"[1]": {"target": "T1, UGT2B10 (Homo sapiens, UniProt P36537)", "T1 sequence (P36537 24-528)": "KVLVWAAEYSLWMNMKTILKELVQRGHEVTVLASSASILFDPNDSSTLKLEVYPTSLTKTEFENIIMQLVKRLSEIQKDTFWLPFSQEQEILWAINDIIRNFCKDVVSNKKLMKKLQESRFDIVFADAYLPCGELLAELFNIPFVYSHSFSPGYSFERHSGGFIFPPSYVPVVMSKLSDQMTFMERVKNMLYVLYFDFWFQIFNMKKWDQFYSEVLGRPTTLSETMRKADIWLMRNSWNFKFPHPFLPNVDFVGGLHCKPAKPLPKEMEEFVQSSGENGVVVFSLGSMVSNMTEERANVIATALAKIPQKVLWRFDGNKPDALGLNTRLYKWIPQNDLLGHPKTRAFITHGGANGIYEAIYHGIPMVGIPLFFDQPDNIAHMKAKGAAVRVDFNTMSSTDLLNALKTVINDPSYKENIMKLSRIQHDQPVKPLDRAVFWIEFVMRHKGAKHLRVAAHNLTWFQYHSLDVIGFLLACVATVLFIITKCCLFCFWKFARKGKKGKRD", "test": "biochemical", "method": "Initial screening assays were performed as described above for the CYP assays using 1 μM or 10 μM of each of the NAs. The inhibitory effects of each agent against UGT2B10 was performed using the known UGT2B10-specific probe substrate, nicotine, in pooled human liver microsomes. […] Pre-incubations containing 500 μM nicotine and 1 or 10 μM NA were subsequently performed at 37° C. in 50 mM Tris-HCl buffer (pH 7.5, in a final volume of 50 μL) and 10 mM MgCl2 for 5 minutes."}, "[2]": {"test_system": "UGTs 1A1, 1A4, 1A6, 1A9, 2B4, 2B7, 2B10, 2B15 and 2B17", "test": "Selectivity over other major hepatic UGT enzymes (panel statement)", "format": "biochemical, human"}, "[3]": {"target": "T2, CYP2A6 (Homo sapiens, UniProt P11509)", "T2 sequence (P11509 1-494)": "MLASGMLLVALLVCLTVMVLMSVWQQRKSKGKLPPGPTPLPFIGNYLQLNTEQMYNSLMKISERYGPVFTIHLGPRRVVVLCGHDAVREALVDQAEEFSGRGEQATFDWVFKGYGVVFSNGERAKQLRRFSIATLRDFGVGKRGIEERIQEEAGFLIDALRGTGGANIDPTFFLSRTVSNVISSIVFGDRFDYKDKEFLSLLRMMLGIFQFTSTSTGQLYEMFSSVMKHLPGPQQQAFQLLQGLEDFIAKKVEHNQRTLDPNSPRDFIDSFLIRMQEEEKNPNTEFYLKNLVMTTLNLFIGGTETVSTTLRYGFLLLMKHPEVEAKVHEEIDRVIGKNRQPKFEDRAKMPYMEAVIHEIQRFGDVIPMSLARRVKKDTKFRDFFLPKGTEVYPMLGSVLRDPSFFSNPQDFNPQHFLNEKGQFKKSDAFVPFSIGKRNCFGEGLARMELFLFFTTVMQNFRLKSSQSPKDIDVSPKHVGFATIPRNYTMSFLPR", "details": "read-out: IC50 against CYP2A6; Table 5, alkyne linker agents; pooled human liver microsomes, coumarin […]"}, "[4]": {"target": "T3, CYP2C8 (Homo sapiens, UniProt P10632)", "T3 sequence (P10632 1-490)": "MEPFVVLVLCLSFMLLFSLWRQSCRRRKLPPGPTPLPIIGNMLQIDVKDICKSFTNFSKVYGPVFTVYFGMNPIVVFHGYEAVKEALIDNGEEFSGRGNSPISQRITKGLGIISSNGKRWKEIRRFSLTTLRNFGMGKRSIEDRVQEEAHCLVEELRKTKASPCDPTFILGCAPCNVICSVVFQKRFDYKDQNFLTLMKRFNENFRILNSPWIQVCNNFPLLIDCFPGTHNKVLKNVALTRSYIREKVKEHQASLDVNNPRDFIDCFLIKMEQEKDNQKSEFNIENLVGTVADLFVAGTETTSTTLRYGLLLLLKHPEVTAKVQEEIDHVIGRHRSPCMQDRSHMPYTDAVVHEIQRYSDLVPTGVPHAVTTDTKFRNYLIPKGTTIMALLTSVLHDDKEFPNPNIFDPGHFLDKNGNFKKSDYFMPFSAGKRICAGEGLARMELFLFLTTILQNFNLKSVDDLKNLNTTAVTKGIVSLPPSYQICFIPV", "details": "Table 6"}, "[5]": {"target": "CYP2E1 (Homo sapiens, UniProt P05181)", "sequence (P05181 whole entry)": "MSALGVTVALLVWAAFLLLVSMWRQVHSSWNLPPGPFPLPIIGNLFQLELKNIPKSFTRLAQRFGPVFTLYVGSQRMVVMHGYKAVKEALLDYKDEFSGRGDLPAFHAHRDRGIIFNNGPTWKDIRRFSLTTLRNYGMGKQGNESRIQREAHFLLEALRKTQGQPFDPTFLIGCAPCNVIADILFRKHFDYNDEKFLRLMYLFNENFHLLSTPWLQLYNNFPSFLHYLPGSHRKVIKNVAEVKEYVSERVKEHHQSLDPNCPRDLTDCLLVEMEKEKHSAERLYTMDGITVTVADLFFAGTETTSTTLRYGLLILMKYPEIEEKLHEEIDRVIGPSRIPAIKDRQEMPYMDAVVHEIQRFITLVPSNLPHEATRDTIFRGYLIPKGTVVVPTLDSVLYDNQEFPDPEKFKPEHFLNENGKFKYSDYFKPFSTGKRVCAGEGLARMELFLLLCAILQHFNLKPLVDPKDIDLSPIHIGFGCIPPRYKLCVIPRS", "details": "Table 6"}, "[6]": {"target": "UGT1A4 (Homo sapiens, UniProt P22310)", "sequence (P22310 29-534)": "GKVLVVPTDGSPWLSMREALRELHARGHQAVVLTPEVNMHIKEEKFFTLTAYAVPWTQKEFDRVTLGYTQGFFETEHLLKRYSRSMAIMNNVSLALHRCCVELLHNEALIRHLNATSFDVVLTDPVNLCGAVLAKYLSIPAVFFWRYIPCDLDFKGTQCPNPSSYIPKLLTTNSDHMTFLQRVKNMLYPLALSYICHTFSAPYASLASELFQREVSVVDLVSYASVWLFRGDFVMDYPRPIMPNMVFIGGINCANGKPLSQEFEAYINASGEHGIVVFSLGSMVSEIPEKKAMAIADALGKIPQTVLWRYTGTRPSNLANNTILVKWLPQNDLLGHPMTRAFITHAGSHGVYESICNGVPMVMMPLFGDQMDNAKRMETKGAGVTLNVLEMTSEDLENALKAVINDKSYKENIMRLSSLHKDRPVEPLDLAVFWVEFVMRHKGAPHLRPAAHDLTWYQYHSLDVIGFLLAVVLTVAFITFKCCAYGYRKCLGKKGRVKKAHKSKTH", "details": "Table 10"}, "[7]": {"target": "UGT1A6 (Homo sapiens, UniProt P19224)", "sequence (P19224 27-532)": "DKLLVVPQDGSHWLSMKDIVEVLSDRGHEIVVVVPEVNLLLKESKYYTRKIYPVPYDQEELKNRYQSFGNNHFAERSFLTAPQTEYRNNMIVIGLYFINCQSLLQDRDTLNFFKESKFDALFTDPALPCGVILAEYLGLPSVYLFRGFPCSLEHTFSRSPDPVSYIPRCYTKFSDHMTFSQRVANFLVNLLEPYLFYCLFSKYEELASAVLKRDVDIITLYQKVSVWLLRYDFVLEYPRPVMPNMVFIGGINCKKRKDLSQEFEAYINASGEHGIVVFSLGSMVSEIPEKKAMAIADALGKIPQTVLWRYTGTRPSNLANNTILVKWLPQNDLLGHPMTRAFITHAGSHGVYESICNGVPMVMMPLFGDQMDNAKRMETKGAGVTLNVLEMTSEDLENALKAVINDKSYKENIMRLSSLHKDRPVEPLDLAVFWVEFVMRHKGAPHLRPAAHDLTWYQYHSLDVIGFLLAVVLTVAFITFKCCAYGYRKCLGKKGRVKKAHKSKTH", "details": "Table 10"}, "[8]": {"target": "UGT1A9 (Homo sapiens, UniProt O60656)", "sequence (O60656 26-530)": "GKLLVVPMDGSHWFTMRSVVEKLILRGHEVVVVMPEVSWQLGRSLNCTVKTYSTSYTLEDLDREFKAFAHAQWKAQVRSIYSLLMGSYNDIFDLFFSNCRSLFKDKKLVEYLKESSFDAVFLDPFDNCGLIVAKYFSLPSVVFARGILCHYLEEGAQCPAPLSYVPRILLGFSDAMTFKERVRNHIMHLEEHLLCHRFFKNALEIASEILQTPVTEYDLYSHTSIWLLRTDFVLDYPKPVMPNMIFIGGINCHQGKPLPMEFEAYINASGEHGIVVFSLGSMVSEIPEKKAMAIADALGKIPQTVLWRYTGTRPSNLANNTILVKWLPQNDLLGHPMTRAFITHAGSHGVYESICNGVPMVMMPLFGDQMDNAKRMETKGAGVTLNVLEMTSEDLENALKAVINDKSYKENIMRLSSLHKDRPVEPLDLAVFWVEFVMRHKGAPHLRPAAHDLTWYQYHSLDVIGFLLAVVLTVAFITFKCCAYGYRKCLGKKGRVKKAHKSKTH", "details": "Table 10"}, "[9]": {"target": "CYP2C19 (Homo sapiens, UniProt P33261)", "sequence (P33261 whole entry)": "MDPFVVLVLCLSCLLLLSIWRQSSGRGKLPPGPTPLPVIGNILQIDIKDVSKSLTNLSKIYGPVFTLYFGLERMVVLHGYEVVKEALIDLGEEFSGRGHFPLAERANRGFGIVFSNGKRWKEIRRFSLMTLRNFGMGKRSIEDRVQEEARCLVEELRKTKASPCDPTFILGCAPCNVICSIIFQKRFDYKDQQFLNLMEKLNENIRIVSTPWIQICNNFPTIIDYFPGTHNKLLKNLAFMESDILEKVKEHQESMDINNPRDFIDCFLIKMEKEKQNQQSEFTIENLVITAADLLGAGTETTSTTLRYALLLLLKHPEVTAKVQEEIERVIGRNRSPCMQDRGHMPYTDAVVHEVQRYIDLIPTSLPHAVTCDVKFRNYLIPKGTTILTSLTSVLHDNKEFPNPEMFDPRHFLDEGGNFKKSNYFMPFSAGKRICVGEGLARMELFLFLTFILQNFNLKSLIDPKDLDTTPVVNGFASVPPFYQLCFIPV", "test": "CYP2C19 inhibition assay, human liver microsomes, omeprazole probe (cocktail)", "details": "Table 6"}}}
{"smiles": "COc1ccncc1C#CCN", "note": "[Compound K, 3-(4-methoxypyridin-3-yl)prop-2-yn-1-amine]", "values": [{"measurement": "IC50", "setting": "[1]; IC50 against UGT2B10", "result": "< 60", "unit": "µM"}, {"measurement": "IC50", "setting": "[1]; IC50 against UGT2B10 (μM), Table 9, pooled human liver microsomes, nicotine 500 μM", "result": 33, "unit": "µM"}, {"measurement": "UGThepatic/UGT2B10 IC50 ratio against all UGT enzymes tested", "setting": "[2]", "result": "> 3.5"}, {"measurement": "IC50", "setting": "[3]", "result": 3.4, "unit": "µM"}, {"measurement": "IC50 ratio CYP2C8/CYP2A6", "setting": "[4]", "result": ">15"}, {"measurement": "IC50 ratio CYP2E1/CYP2A6", "setting": "[5]", "result": 5.3}, {"measurement": "IC50 ratio UGT1A4/UGT2B10", "setting": "[6]", "result": 7}, {"measurement": "IC50 ratio UGT1A6/UGT2B10", "setting": "[7]", "result": 29}, {"measurement": "IC50 ratio UGT1A9/UGT2B10", "setting": "[8]", "result": 5}, {"measurement": "IC50 ratio CYP2C19/CYP2A6", "setting": "[9]", "result": 2.7}]}
